Measurements taken from ChEMBL document CHEMBL1687748 (Antimicrob Agents Chemother, 2009).
≈ marks a conversion by molar mass, not a printed value.

Legend:
Type in all cases: functional
Bacillus anthracis [1] = assay: Total sensitive organism counts of toxin and capsule gene-deficient Bacillus anthracis Sterne in hollow-fiber pharmacodynamic infection model at 150 mg administered as continuous infusion by Bayesian method
Bacillus anthracis [2] = assay: Kill rate constant for compound-sensitive toxin and capsule gene-deficient Bacillus anthracis Sterne in hollow-fiber pharmacodynamic infection model at 50 mg, qd by Bayesian method
Bacillus anthracis [3] = assay: Growth rate constant of vegetative-phase cells going to spore phase in toxin and capsule gene-deficient Bacillus anthracis Sterne in hollow-fiber pharmacodynamic infection model administered for every 24 hrs
Bacillus anthracis [4] = assay: Total spore counts of toxin and capsule gene-deficient Bacillus anthracis Sterne in hollow-fiber pharmacodynamic infection model at 250 mg, qd by Bayesian method
Bacillus anthracis [5] = assay: Growth rate constant of vegetative-phase cells going to spore phase in toxin and capsule gene-deficient Bacillus anthracis Sterne in hollow-fiber pharmacodynamic infection model at 100 mg, qd by Bayesian method
Bacillus anthracis [6] = assay: Total sensitive organism counts of toxin and capsule gene-deficient Bacillus anthracis Sterne in hollow-fiber pharmacodynamic infection model at 250 mg, qd by Bayesian method
Bacillus anthracis [7] = assay: Growth rate constant for compound-sensitive toxin and capsule gene-deficient Bacillus anthracis Sterne in hollow-fiber pharmacodynamic infection model at 100 mg administered as continuous infusion by Bayesian method
Bacillus anthracis [8] = assay: Total sensitive organism counts of toxin and capsule gene-deficient Bacillus anthracis Sterne in hollow-fiber pharmacodynamic infection model at 100 mg, qd by Bayesian method
Bacillus anthracis [9] = assay: Kill rate constant for compound-sensitive toxin and capsule gene-deficient Bacillus anthracis Sterne in hollow-fiber pharmacodynamic infection model at 250 mg, qd by Bayesian method
Bacillus anthracis [10] = assay: Hill constant for compound-sensitive toxin and capsule gene-deficient Bacillus anthracis Sterne in hollow-fiber pharmacodynamic infection model at 50 mg, qd by Bayesian method
Bacillus anthracis [11] = assay: Growth rate constant of vegetative-phase cells going to spore phase in toxin and capsule gene-deficient Bacillus anthracis Sterne in hollow-fiber pharmacodynamic infection model at 200 mg, qd by Bayesian method
Bacillus anthracis [12] = assay: Hill constant for compound-sensitive toxin and capsule gene-deficient Bacillus anthracis Sterne in hollow-fiber pharmacodynamic infection model administered as continuous infusion
Bacillus anthracis [13] = assay: Growth rate constant for compound-sensitive toxin and capsule gene-deficient Bacillus anthracis Sterne in hollow-fiber pharmacodynamic infection model at 150 mg, qd by Bayesian method
Bacillus anthracis [14] = assay: Growth rate constant of vegetative-phase cells going to spore phase in toxin and capsule gene-deficient Bacillus anthracis Sterne in hollow-fiber pharmacodynamic infection model at 150 mg, qd by Bayesian method
Bacillus anthracis [15] = assay: Total spore counts of toxin and capsule gene-deficient Bacillus anthracis Sterne in hollow-fiber pharmacodynamic infection model at 200 mg, qd by Bayesian method
Bacillus anthracis [16] = assay: Total sensitive organism counts of toxin and capsule gene-deficient Bacillus anthracis Sterne in hollow-fiber pharmacodynamic infection model at 100 mg administered as continuous infusion by Bayesian method
Bacillus anthracis [17] = assay: Hill constant for compound-sensitive toxin and capsule gene-deficient Bacillus anthracis Sterne in hollow-fiber pharmacodynamic infection model at 150 mg, qd by Bayesian method
Bacillus anthracis [18] = assay: Total spore counts of toxin and capsule gene-deficient Bacillus anthracis Sterne in hollow-fiber pharmacodynamic infection model at 50 mg, qd by Bayesian method
Bacillus anthracis [19] = assay: Kill rate constant for compound-sensitive toxin and capsule gene-deficient Bacillus anthracis Sterne in hollow-fiber pharmacodynamic infection model at 150 mg administered as continuous infusion by Bayesian method
Bacillus anthracis [20] = assay: Total spore counts of toxin and capsule gene-deficient Bacillus anthracis Sterne in hollow-fiber pharmacodynamic infection model at 150 mg administered as continuous infusion by Bayesian method
Bacillus anthracis [21] = assay: Growth rate constant of spore-phase cells going to vegetative phase in toxin and capsule gene-deficient Bacillus anthracis Sterne in hollow-fiber pharmacodynamic infection model at 250 mg, qd by Bayesian method
Bacillus anthracis [22] = assay: Total spore counts of toxin and capsule gene-deficient Bacillus anthracis Sterne in hollow-fiber pharmacodynamic infection model administered for every 24 hrs
Bacillus anthracis [23] = assay: Total sensitive organism counts of toxin and capsule gene-deficient Bacillus anthracis Sterne in hollow-fiber pharmacodynamic infection model at 50 mg, qd by Bayesian method
Bacillus anthracis [24] = assay: Total sensitive organism counts of toxin and capsule gene-deficient Bacillus anthracis Sterne in hollow-fiber pharmacodynamic infection model at 150 mg, qd by Bayesian method
Bacillus anthracis [25] = assay: Kill rate constant for compound-sensitive toxin and capsule gene-deficient Bacillus anthracis Sterne in hollow-fiber pharmacodynamic infection model at 200 mg administered as continuous infusion by Bayesian method
Bacillus anthracis [26] = assay: Growth rate constant for compound-sensitive toxin and capsule gene-deficient Bacillus anthracis Sterne in hollow-fiber pharmacodynamic infection model administered for every 24 hrs
Bacillus anthracis [27] = assay: Growth rate constant of vegetative-phase cells going to spore phase in toxin and capsule gene-deficient Bacillus anthracis Sterne in hollow-fiber pharmacodynamic infection model at 250 mg administered as continuous infusion by Bayesian method
Bacillus anthracis [28] = assay: Growth rate constant of vegetative-phase cells going to spore phase in toxin and capsule gene-deficient Bacillus anthracis Sterne in hollow-fiber pharmacodynamic infection model at 100 mg administered as continuous infusion by Bayesian method
Bacillus anthracis [29] = assay: Kill rate constant for compound-sensitive toxin and capsule gene-deficient Bacillus anthracis Sterne in hollow-fiber pharmacodynamic infection model at 250 mg administered as continuous infusion by Bayesian method
Bacillus anthracis [30] = assay: Hill constant for compound-sensitive toxin and capsule gene-deficient Bacillus anthracis Sterne in hollow-fiber pharmacodynamic infection model at 150 mg administered as continuous infusion by Bayesian method
Bacillus anthracis [31] = assay: Total spore counts of toxin and capsule gene-deficient Bacillus anthracis Sterne in hollow-fiber pharmacodynamic infection model at 250 mg administered as continuous infusion by Bayesian method
Bacillus anthracis [32] = assay: Hill constant for compound-sensitive toxin and capsule gene-deficient Bacillus anthracis Sterne in hollow-fiber pharmacodynamic infection model at 200 mg, qd by Bayesian method
Bacillus anthracis [33] = assay: Total sensitive organism counts of toxin and capsule gene-deficient Bacillus anthracis Sterne in hollow-fiber pharmacodynamic infection model at 200 mg, qd by Bayesian method
Bacillus anthracis [34] = assay: Antimicrobial activity against toxin and capsule gene-deficient Bacillus anthracis Sterne after 24 hrs by […] method
Bacillus anthracis [35] = assay: Total spore counts of toxin and capsule gene-deficient Bacillus anthracis Sterne in hollow-fiber pharmacodynamic infection model at 200 mg administered as continuous infusion by Bayesian method

COc1c(N2C[C@@H]3CCCN[C@@H]3C2)c(F)cc2c(=O)c(C(=O)O)cn(C3CC3)c12 [MOXIFLOXACIN]
CFU/ml (Bacillus anthracis [1]): 23500000 | Activity (Bacillus anthracis [2]): 6.24 h⁻¹ | Activity (Bacillus anthracis [3]): 4.96 h⁻¹ | CFU/ml (Bacillus anthracis [4]): 2360000 | Activity (Bacillus anthracis [5]): 1.38 h⁻¹ | CFU/ml (Bacillus anthracis [6]): 36000000 | Activity (Bacillus anthracis [7]): 8.26 h⁻¹ | CFU/ml (Bacillus anthracis [8]): 28000000 | Activity (Bacillus anthracis [9]): 4.48 h⁻¹ | Activity (Bacillus anthracis [10]): 5.84 h⁻¹ | Activity (Bacillus anthracis [11]): 2.09 h⁻¹ | Activity (Bacillus anthracis [12]): 5.93 h⁻¹ | Activity (Bacillus anthracis [13]): 7.42 h⁻¹ | Activity (Bacillus anthracis [14]): 0.0657 h⁻¹ | CFU/ml (Bacillus anthracis [15]): 2420000 | CFU/ml (Bacillus anthracis [16]): 20600000 | Activity (Bacillus anthracis [17]): 30 h⁻¹ | CFU/ml (Bacillus anthracis [18]): 1860000 | Activity (Bacillus anthracis [19]): 8.28 h⁻¹ | CFU/ml (Bacillus anthracis [20]): 1880000 | Activity (Bacillus anthracis [21]): 1.04 h⁻¹ | CFU/ml (Bacillus anthracis [22]): 1740000 | CFU/ml (Bacillus anthracis [23]): 19600000 | CFU/ml (Bacillus anthracis [24]): 21500000 | Activity (Bacillus anthracis [25]): 8.28 h⁻¹ | Activity (Bacillus anthracis [26]): 8.24 h⁻¹ | Activity (Bacillus anthracis [27]): 5.18 h⁻¹ | Activity (Bacillus anthracis [28]): 1.17 h⁻¹ | Activity (Bacillus anthracis [29]): 8.28 h⁻¹ | Activity (Bacillus anthracis [30]): 30 h⁻¹ | CFU/ml (Bacillus anthracis [31]): 1860000 | Activity (Bacillus anthracis [32]): 1 h⁻¹ | CFU/ml (Bacillus anthracis [33]): 53600000 | MBC (Bacillus anthracis [34]): 1 µg/mL (≈ 2.49 µM) | CFU/ml (Bacillus anthracis [35]): 1870000
